Key:
[1] = system: TLR-induced cytokine production in DCs; experiment: DC activation assay: TLR-induced cytokine production (ELISA / ISRE luciferase reporter); assay type: cell-based, mouse; details: IFNα, 10 nM CpG, 15 hours, 3 nM ProS (FIG. 8A)
Experimental: Splenic DC or BM-DCs (1×10^6 cells/ml) were cultured overnight in serum-free medium (StemSpan, StemCell Technologies Inc.) in the presence of the indicated concentrations of LPS from Salmonella minnesota R595 Re (Alexis), CpG-ODN 1668 (TCCATGACGTTCCGATGCT; SEQ ID NO: 19; Integrated DNA Technologies) or Poly I:C (InvivoGen) alone or in the presence of murine recombinant Gas6 (R&D Systems) or murine recombinant Protein S (produced as described in Prasad et al., (2006) Mol Cell Neurosci 33:96-108). Cytokine production was quantified in cell-free supernatants by ELISA (ebioscience for IL-12, IL-6 and TNFα and PBL-biomedical for IFNα) or by a luciferase assay using a cell line containing an ISRE-responsive element luciferase reporter construct for Type I IFN (Jiang et al., (2005) Nat Immunol 6:565-570).

[2] = system: SOCS1 and SOCS3 mRNA in DCs; experiment: Q-PCR of SOCS1 and SOCS3 mRNA in DCs; assay type: cell-based, mouse; details: for SOCS1 mRNA induction: 300 U/ml IFNα
Experimental: (§1) Splenic DCs (1×10^6 cells/ml) or BM-DCs (5×10^6 cells/ml) were cultured in serum-free medium and treated with the indicated concentrations of murine recombinant Gas6, murine recombinant Protein S, the TLR ligands indicated above, recombinant mouse IFNα (PBL Biomedical laboratories), recombinant mouse Axl-FC chimera (R&D), cyclohexamide (Sigma) or Actinomycin D (Sigma). Whole cell lysates and RNA extraction were performed as indicated below.
(§2) After stimulation, cells were harvested, and total RNA was isolated using the RNeasy mini kit (Qiagen). Reverse transcription was performed according to manufacturer instructions with RT Superscript III (Invitrogen). PCR reactions were performed on an ABI Prism 7700 Sequence Detection System using SYBRGreen PCR master mix (Applied Biosystems). Each reaction was normalized against the expression of β-actin or GAPDH. Analyses of dissociation curves were performed with SDS software (Applied Biosystems) to ensure the absence of nonspecific amplification. Q-PCR primers used herein are listed below.

[3] = system: Axl mRNA and protein in DCs; experiment: Axl expression in DCs (Q-PCR, FACS, Western blot); assay type: cell-based, mouse; details: for Axl expression by Western blot: WT DCs
Experimental: as §1
DCs were washed in PBS and harvested in NuPage LDS sample buffer (Invitrogen) with 100 μM DTT. Whole cell lysates were resolved by electrophoresis, proteins were transferred to a PVDF membrane (Immobilon P, Millipore), blocked in 3% BSA/TBS-Tween-20 and probed with the indicated antibodies. For fluorescent western blotting with the Odyssey system, proteins were transferred to an Immobilon-FL PVDF membrane (Millipore) and incubated with two primary antibodies in 0.1% casein/PBS-Tween-20. Following incubation with fluorescence-labeled secondary antibodies, membranes were scanned with the Odyssey imaging system (LI-COR).
as §2
Cells were incubated for 15 minutes with a rat mAb to CD16/32 to block Fc receptors and then with primary antibodies for 20 minutes on ice. The following mAbs against murine molecules were used: allophycocyanin- and phycoerythrin-conjugated anti-CD11c, FITC-conjugated anti-MHC class I (H-2K^b) and anti-MHC class II (I-A^b), PerCP-Cy5.5-conjugated anti-CD3, anti-CD19 and anti-NK1.1 (all from BD Pharmingen). For Axl staining, cells were processed as described, fixed with 10% paraformaldehyde, permeabilized with Saponin (0.1%, Sigma), incubated with Axl (M-20) antibody for 30 minutes and then with anti-goat Cy5 antibody (Jackson ImmunoResearch). Fluorescent cells were acquired with a FacsSort flow cytometer (Becton Dickinson) and analyzed with FlowJo (Tree Star) software.

[4] = system: IRF-7 and IFI-204 mRNA in DCs; experiment: Q-PCR of IRF-7 and IFI-204 mRNA in DCs; assay type: cell-based, mouse; details: splenic DCs, 300 U/ml IFNα
Experimental: as §1, §2

[5] = molecular target: TAM receptors (on mouse dendritic cells); experiment: cell-based or functional assay
[6] = molecular target: T1, STAT1 (mouse, UniProt P42225); experiment: co-immunoprecipitation from BM-DC whole cell lysates, untreated (-) or treated 20 min with 50 nM Gas6 (+); IP with antibody to the IFN receptor R1 chain, immunoblot for STAT1
T1 construct: endogenous full-length protein in the cell lysate; also called total STAT1
T1 sequence (transcription factor, looked up): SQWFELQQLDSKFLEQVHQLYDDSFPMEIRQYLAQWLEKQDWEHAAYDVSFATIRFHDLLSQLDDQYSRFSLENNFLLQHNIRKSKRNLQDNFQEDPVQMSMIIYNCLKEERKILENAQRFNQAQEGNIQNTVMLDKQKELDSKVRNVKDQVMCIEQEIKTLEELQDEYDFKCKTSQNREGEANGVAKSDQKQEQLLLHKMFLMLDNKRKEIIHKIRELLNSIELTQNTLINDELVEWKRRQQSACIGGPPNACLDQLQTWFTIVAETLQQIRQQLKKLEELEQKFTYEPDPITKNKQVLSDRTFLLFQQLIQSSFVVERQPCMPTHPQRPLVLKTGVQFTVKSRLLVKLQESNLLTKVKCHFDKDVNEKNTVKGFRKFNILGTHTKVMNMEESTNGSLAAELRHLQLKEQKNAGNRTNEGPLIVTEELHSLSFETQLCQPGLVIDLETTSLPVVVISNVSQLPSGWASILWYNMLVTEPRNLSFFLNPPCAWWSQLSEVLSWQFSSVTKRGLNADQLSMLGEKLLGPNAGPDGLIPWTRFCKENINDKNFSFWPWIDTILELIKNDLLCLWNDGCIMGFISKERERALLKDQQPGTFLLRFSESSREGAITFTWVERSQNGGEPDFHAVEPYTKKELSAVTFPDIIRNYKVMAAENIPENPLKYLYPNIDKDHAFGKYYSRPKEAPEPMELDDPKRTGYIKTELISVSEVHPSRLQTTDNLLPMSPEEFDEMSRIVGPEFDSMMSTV

[7] = molecular target: T2, Axl (mouse, endogenous in bone marrow-derived dendritic cells) (mouse, UniProt Q00993 19-888); experiment: co-immunoprecipitation from BM-DC whole cell lysates, untreated (-) or treated 20 min with 50 nM Gas6 (+); IP with antibody to the IFN receptor R2 chain, immunoblot for Axl
T2 construct: whole, on cells; Endogenous protein co-immunoprecipitated from Triton X-100 lysates of mouse BM-DCs, not a recombinant construct; also called TAM receptor
T2 sequence (looked up): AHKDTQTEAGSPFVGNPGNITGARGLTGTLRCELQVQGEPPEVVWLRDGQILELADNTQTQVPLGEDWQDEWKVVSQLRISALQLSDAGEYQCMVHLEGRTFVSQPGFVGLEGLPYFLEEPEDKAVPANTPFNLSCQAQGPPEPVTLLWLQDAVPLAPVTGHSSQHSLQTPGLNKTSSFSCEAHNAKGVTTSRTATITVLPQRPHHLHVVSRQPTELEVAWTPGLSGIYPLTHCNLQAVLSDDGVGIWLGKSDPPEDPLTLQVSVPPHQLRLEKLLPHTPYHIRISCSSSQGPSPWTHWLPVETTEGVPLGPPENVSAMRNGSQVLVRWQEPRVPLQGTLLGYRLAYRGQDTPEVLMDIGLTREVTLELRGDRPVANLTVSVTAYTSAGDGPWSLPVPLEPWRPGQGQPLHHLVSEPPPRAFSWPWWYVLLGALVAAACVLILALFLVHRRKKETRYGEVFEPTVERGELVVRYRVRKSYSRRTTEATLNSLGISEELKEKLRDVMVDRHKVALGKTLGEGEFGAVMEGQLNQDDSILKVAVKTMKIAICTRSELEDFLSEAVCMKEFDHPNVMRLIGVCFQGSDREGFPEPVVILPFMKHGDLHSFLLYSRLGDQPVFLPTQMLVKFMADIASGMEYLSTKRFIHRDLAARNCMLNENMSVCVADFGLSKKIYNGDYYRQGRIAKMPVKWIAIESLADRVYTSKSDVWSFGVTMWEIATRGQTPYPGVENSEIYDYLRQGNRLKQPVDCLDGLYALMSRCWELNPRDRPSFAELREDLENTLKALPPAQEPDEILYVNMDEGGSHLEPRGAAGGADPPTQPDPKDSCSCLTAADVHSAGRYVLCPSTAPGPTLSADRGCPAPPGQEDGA

In the case of “ProS: murine recombinant Protein S, the second agonist for TAM receptors”, the “inhibiting TLR-induced cytokine production in WT DCs, compared with Gas6” value [1] is reported as “equally effective”.

With IFNα the “SOCS1 mRNA expressed by TAM TKO DCs relative to WT DCs” value ([2]; IFN-treated, integrated over the 6-hour time course) was about 24%, the “SOCS1 mRNA induction” value ([2]; TAM TKO splenic DCs) was “significantly blunted” and the “SOCS1 mRNA induction” value ([2]; WT splenic DCs, 2 hours, sustained up to 6 hours) was “robust induction”. For the same molecule, the Axl induction ([3]; STAT1−/− DCs) was “lost”, the “Axl expression by Western blot” value [3] was “substantial up-regulation” and the “IFNα-induced IRF-7 and IFI-204 mRNA levels, WT versus TAM TKO DCs” value [4] was “indistinguishable”.

For poly I:C, the Axl induction ([3]; Ifnar−/− DCs) was “lost”, the Axl induction ([3]; STAT1−/− DCs) was “lost” and the “Axl expression by Western blot” value [3] was “substantial up-regulation”.

In the case of “murine recombinant Gas6 (R&D Systems) (from UniProt Q61592 28-674) (ligand)”, the SOCS1 mRNA expression in BM-DCs (Q-PCR) after addition of 50 nM Gas6 [5] is reported as 10 fold and the SOCS3 mRNA expression in BM-DCs (Q-PCR) after addition of 50 nM Gas6 [5] is reported as 10 fold.

B1: R1 chain of the type I IFN receptor (mouse, endogenous in BM-DCs) (receptor, UniProt P33896 27-590, looked up)
chain: ENLKPPENIDVYIIDDNYTLKWSSHGESMGSVTFSAEYRTKDEAKWLKVPECQHTTTTKCEFSLLDTNVYIKTQFRVRAEEGNSTSSWNEVDPFIPFYTAHMSPPEVRLEAEDKAILVHISPPGQDGNMWALEKPSFSYTIRIWQKSSSDKKTINSTYYVEKIPELLPETTYCLEVKAIHPSLKKHSNYSTVQCISTTVANKMPVPGNLQVDAQGKSYVLKWDYIASADVLFRAQWLPGYSKSSSGSRSDKWKPIPTCANVQTTHCVFSQDTVYTGTFFLHVQASEGNHTSFWSEEKFIDSQKHILPPPPVITVTAMSDTLLVYVNCQDSTCDGLNYEIIFWENTSNTKISMEKDGPEFTLKNLQPLTVYCVQARVLFRALLNKTSNFSEKLCEKTRPGSFSTIWIITGLGVVFFSVMVLYALRSVWKYLCHVCFPPLKPPRSIDEFFSEPPSKNLVLLTAEEHTERCFIIENTDTVAVEVKHAPEEDLRKYSSQTSQDSGNYSNEEEESVGTESGQAVLSKAPCGGPCSVPSPPGTLEDGTCFLGNEKYLQSPALRTEPALLC
notes: whole, on cells; Endogenous protein immunoprecipitated from mouse BM-DC lysates; also called IFNAR1; IFN receptor R1 chain
B1: no binding [6].

B2: IFNAR2 (receptor, mouse, UniProt O35664 22-513, looked up)
receptor chain: SLETITPSAFDGYPDEPCTINITIRNSRLILSWELENKSGPPANYTLWYTVMSKDENLTKVKNCSDTTKSSCDVTDKWLEGMESYVVAIVIVHRGDLTVCRCSDYIVPANAPLEPPEFEIVGFTDHINVTMEFPPVTSKIIQEKMKTTPFVIKEQIGDSVRKKHEPKVNNVTGNFTFVLRDLLPKTNYCVSLYFDDDPAIKSPLKCIVLQPGQESGLSESAIVGITTSCLVVMVFVSTIVMLKRIGYICLKDNLPNVLNFRHFLTWIIPERSPSEAIDRLEIIPTNKKKRLWNYDYEDGSDSDEEVPTASVTGYTMHGLTGKPLQQTSDTSASPEDPLHEEDSGAEESDEAGAGAGAEPELPTEAGAGPSEDPTGPYERRKSVLEDSFPREDNSSMDEPGDNIIFNVNLNSVFLRVLHDEDASETLSLEEDTILLDEGPQRTESDLRIAGGDRTQPPLPSLPSQDLWTEDGSSEKSDTSDSDADVGDGYIMR
notes: endogenous full-length protein in the cell lysate; also called R2 chain of the type I IFN receptor; IFN receptor R2 chain
B2: no binding [7].

— patent US20100266604A1, “USE OF TAM RECEPTOR INHIBITORS AS IMMUNOENHANCERS AND TAM ACTIVATORS AS IMMUNOSUPPRESSORS” (The Salk Institute for Biological Studies, priority 2007, published 2010)
